Test results from ChEMBL document CHEMBL1201862, “PubChem BioAssay data set” (2004).
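Five concentrations, 48 hours, 96-well plates. GI50 is the concentration that inhibits growth by half.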 Calls of active or inactive are those of the source. No stated cut-off is given here; in the data, active = GI50 up to about 1.1 µM and inactive = higher.

Experiments:
Assay in all cases: growth of human tumour cells (NCI), 48 h
786-0 = tested on: 786-0
A498 = tested on: A498
A549 = tested on: A549
ACHN = tested on: ACHN
BT-549 = tested on: BT-549
CAKI-1 = tested on: CAKI-1
CCRF-CEM = tested on: CCRF-CEM
COLO 205 = tested on: COLO 205
DU-145 = tested on: DU-145
EKVX = tested on: EKVX
HCC 2998 = tested on: HCC 2998
HCT-116 = tested on: HCT-116
HCT-15 = tested on: HCT-15
HL-60 = tested on: HL-60
HOP-62 = tested on: HOP-62
HOP-92 = tested on: HOP-92
HT-29 = tested on: HT-29
Hs-578T = tested on: Hs-578T
IGROV-1 = tested on: IGROV-1
K562 = tested on: K562
KM12 = tested on: KM12
LOX IMVI = tested on: LOX IMVI
M14 = tested on: M14
MCF7 = tested on: MCF7
MDA-MB-231 = tested on: MDA-MB-231
MDA-MB-435 = tested on: MDA-MB-435
MDA-N = tested on: MDA-N
MOLT-4 = tested on: MOLT-4
Malme-3M = tested on: Malme-3M
NCI-H226 = tested on: NCI-H226
NCI-H23 = tested on: NCI-H23
NCI-H460 = tested on: NCI-H460
NCI-H522 = tested on: NCI-H522
NCI/ADR-RES = tested on: NCI/ADR-RES
OVCAR-3 = tested on: OVCAR-3
OVCAR-4 = tested on: OVCAR-4
OVCAR-5 = tested on: OVCAR-5
OVCAR-8 = tested on: OVCAR-8
PC-3 = tested on: PC-3
RPMI-8226 = tested on: RPMI-8226
RXF 393 = tested on: RXF 393
SF-268 = tested on: SF-268
SF-295 = tested on: SF-295
SF-539 = tested on: SF-539
SK-MEL-28 = tested on: SK-MEL-28
SK-MEL-2 = tested on: SK-MEL-2
SK-MEL-5 = tested on: SK-MEL-5
SK-OV-3 = tested on: SK-OV-3
SN12C = tested on: SN12C
SNB-19 = tested on: SNB-19
SNB-75 = tested on: SNB-75
SR = tested on: SR
SW-620 = tested on: SW-620
T47D = tested on: T47D
TK-10 = tested on: TK-10
U-251 = tested on: U-251
UACC-257 = tested on: UACC-257
UACC-62 = tested on: UACC-62
UO-31 = tested on: UO-31

For CCn1c2ccc(C(=O)CCCN3CCCCC3)cc2c2cc(C(=O)CCCN3CCCCC3)ccc21, the GI50 (786-0) was 938 nM (active), the GI50 (A498) was 5700 nM (inactive) and the GI50 (A549) was 1810 nM (inactive). For the same molecule, the GI50 (ACHN) was 1740 nM (inactive), the GI50 (BT-549) was 16900 nM (inactive) and the GI50 (CAKI-1) was 3480 nM (inactive). The GI50 (CCRF-CEM) was 2400 nM (inactive), the GI50 (COLO 205) was 2670 nM (inactive) and the GI50 (DU-145) was 5330 nM (inactive). For the same molecule, the GI50 (EKVX) was 4840 nM (inactive), the GI50 (HCC 2998) was 5940 nM (inactive) and the GI50 (HCT-116) was 1780 nM (inactive). For the same molecule, the GI50 (HCT-15) was 1860 nM, the GI50 (HL-60) was 13200 nM (inactive) and the GI50 (HOP-62) was 3300 nM (inactive). For the same molecule, the GI50 (HOP-92) was 10400 nM (inactive), the GI50 (HT-29) was 1390 nM (inactive) and the GI50 (Hs-578T) was 2440 nM (inactive). The GI50 (IGROV-1) was 2080 nM (inactive), the GI50 (K562) was 2970 nM (inactive) and the GI50 (KM12) was 1980 nM (inactive). For the same molecule, the GI50 (LOX IMVI) was 1860 nM (inactive), the GI50 (M14) was 2040 nM (inactive) and the GI50 (MCF7) was 1580 nM (inactive). For the same molecule, the GI50 (MDA-MB-231) was 1830 nM (inactive), the GI50 (MDA-MB-435) was 1720 nM (inactive) and the GI50 (MDA-N) was 2220 nM (inactive). The GI50 (MOLT-4) was 524 nM (active), the GI50 (Malme-3M) was 6850 nM (inactive) and the GI50 (NCI-H226) was 11900 nM (inactive). For the same molecule, the GI50 (NCI-H23) was 2130 nM (inactive), the GI50 (NCI-H460) was 998 nM (active) and the GI50 (NCI-H522) was 1560 nM (inactive). For the same molecule, the GI50 (NCI/ADR-RES) was 3780 nM (inactive), the GI50 (OVCAR-3) was 2110 nM (inactive) and the GI50 (OVCAR-4) was 1330 nM (inactive). For the same molecule, the GI50 (OVCAR-5) was 6950 nM (inactive), the GI50 (OVCAR-8) was 1440 nM (inactive) and the GI50 (PC-3) was 2130 nM (inactive). For the same molecule, the GI50 (RPMI-8226) was 1750 nM (inactive), the GI50 (RXF 393) was 2630 nM (inactive) and the GI50 (SF-268) was 4940 nM (inactive). The GI50 (SF-295) was 2430 nM (inactive), the GI50 (SF-539) was 1770 nM (inactive) and the GI50 (SK-MEL-28) was 19300 nM (inactive). For the same molecule, the GI50 (SK-MEL-2) was 1780 nM (inactive), the GI50 (SK-MEL-5) was 1560 nM (inactive) and the GI50 (SK-OV-3) was 3430 nM (inactive). For the same molecule, the GI50 (SN12C) was 4160 nM (inactive), the GI50 (SNB-19) was 2580 nM (inactive) and the GI50 (SNB-75) was 2240 nM (inactive). The GI50 (SR) was 2450 nM (inactive), the GI50 (SW-620) was 1010 nM (active) and the GI50 (T47D) was 24200 nM (inactive). For the same molecule, the GI50 (TK-10) was 2910 nM (inactive), the GI50 (U-251) was 2130 nM (inactive) and the GI50 (UACC-257) was 1900 nM (inactive). For the same molecule, the GI50 (UACC-62) was 23000 nM (inactive) and the GI50 (UO-31) was 5320 nM (inactive).

CC1=NN(c2nc(N)nc(/C(C#N)=C/c3ccc([N+](=O)[O-])o3)n2)C(C)(C)C1 was tested, and the GI50 (786-0) was 1570 nM (inactive), the GI50 (A498) was 17800 nM (inactive) and the GI50 (A549) was 13100 nM (inactive). For the same molecule, the GI50 (ACHN) was 1810 nM (inactive), the GI50 (BT-549) was 3340 nM (inactive) and the GI50 (CAKI-1) was 1850 nM (inactive). The GI50 (CCRF-CEM) was 1300 nM (inactive), the GI50 (COLO 205) was 1650 nM (inactive) and the GI50 (DU-145) was 6350 nM (inactive). The GI50 (EKVX) was 3370 nM (inactive), the GI50 (HCC 2998) was 15800 nM (inactive) and the GI50 (HCT-116) was 1450 nM (inactive). For the same molecule, the GI50 (HCT-15) was 1420 nM, the GI50 (HL-60) was 2350 nM (inactive) and the GI50 (HOP-62) was 17200 nM (inactive). For the same molecule, the GI50 (HOP-92) was 1950 nM (inactive), the GI50 (HT-29) was 2090 nM (inactive) and the GI50 (Hs-578T) was 13200 nM (inactive). For the same molecule, the GI50 (IGROV-1) was 2050 nM (inactive), the GI50 (K562) was 315 nM (active) and the GI50 (KM12) was 13900 nM (inactive). The GI50 (LOX IMVI) was 1730 nM (inactive), the GI50 (M14) was 1570 nM (inactive) and the GI50 (MCF7) was 1690 nM (inactive). The GI50 (MDA-MB-231) was 1810 nM (inactive), the GI50 (MDA-MB-435) was 2390 nM (inactive) and the GI50 (MDA-N) was 3050 nM (inactive). For the same molecule, the GI50 (MOLT-4) was 2260 nM (inactive), the GI50 (Malme-3M) was 2010 nM (inactive) and the GI50 (NCI-H226) was 2240 nM (inactive). For the same molecule, the GI50 (NCI-H23) was 3450 nM (inactive), the GI50 (NCI-H460) was 2570 nM (inactive) and the GI50 (NCI-H522) was 1660 nM (inactive). For the same molecule, the GI50 (NCI/ADR-RES) was 10800 nM (inactive), the GI50 (OVCAR-3) was 3320 nM (inactive) and the GI50 (OVCAR-4) was 10200 nM (inactive). For the same molecule, the GI50 (OVCAR-5) was 1580 nM (inactive), the GI50 (OVCAR-8) was 2510 nM (inactive) and the GI50 (PC-3) was 9680 nM (inactive). The GI50 (RPMI-8226) was 3010 nM (inactive), the GI50 (RXF 393) was 1750 nM (inactive) and the GI50 (SF-268) was 3850 nM (inactive). The GI50 (SF-295) was 16500 nM (inactive), the GI50 (SF-539) was 3220 nM (inactive) and the GI50 (SK-MEL-28) was 5060 nM (inactive). For the same molecule, the GI50 (SK-MEL-2) was 6340 nM (inactive), the GI50 (SK-MEL-5) was 5400 nM (inactive) and the GI50 (SK-OV-3) was 21100 nM (inactive). For the same molecule, the GI50 (SN12C) was 1880 nM (inactive), the GI50 (SNB-19) was 15700 nM (inactive) and the GI50 (SNB-75) was 2850 nM (inactive). For the same molecule, the GI50 (SR) was 2580 nM (inactive), the GI50 (SW-620) was 1760 nM (inactive) and the GI50 (T47D) was 2610 nM (inactive). The GI50 (TK-10) was 2000 nM (inactive), the GI50 (U-251) was 5210 nM (inactive) and the GI50 (UACC-257) was 10000 nM (inactive). The GI50 (UACC-62) was 2190 nM (inactive) and the GI50 (UO-31) was 2920 nM (inactive).
